pKi: −log10 of the molar value. Values joined by “and” are separate entries in the source; they are usually repeats but may differ in a detail not shown here. Equal values may be shown once.
Experiments:
[1] = In vitro metabolism: disappearance of parent compound in liver microsomes; format: in vitro ADME; details: human liver microsomes; 5 uM compound, 0.5 mg/ml microsomal protein, 2 mM NADPH, 30 minutes at 37° C.
Procedure: (§1) Human, rat, dog, and monkey liver microsomes are isolated by differential centrifugation. Specimens of human liver were obtained from the International Institute for the Advancement of Medicine (Scranton, Pa.). The disappearance of the parent compound is studied in a mixture containing 5 uM compound, 0.5 mg/ml microsomal protein, and 2 mM NADPH in 50 mM K Phosphate buffer, pH 7.4. Samples are incubated for 30 minutes at 37° C. The reaction is terminated by the addition of acetonitrile and compounds analyzed by LC-MS as described above.

[2] = In vitro metabolism: disappearance of parent compound in liver microsomes (female rat); format: in vitro ADME; details: 5 uM compound, 0.5 mg/ml microsomal protein, 2 mM NADPH, 30 minutes at 37° C.
Procedure: as §1

rat GnRH receptor = biological target: T1, rat GnRH receptor (Rattus norvegicus, UniProt P30969); test: Radioligand binding assay: inhibition of binding of 125I-GnRH-A to GnRH receptors (membranes); details: competition with 125I-GnRH-A, Ki calculated from IC50 (Cheng et al.)
T1 construct: rat pituitaries (Pel Freez Biologicals, Rogers, Ark.) are homogenized in buffer A; tissue Pel Freez Biologicals; host or cells: rat pituitaries
T1 sequence (P30969 1-327): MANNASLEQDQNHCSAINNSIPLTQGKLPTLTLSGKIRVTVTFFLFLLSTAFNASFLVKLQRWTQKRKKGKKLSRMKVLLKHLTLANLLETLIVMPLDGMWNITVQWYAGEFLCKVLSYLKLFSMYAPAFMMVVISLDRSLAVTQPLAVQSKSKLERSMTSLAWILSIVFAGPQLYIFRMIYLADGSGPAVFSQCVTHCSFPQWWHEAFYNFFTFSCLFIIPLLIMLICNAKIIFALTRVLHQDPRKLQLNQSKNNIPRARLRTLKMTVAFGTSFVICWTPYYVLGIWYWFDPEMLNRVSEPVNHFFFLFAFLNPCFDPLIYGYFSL
Summary of the method: (§2)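 Membranes from HEK 293 expressing mouse or human receptor, or rat pituitaries, incubated 1 h at RT with ~0.04–0.06 nM ¹²⁵I-[des-Gly¹⁰,D-Ala⁶]GnRH ethylamide and competitor (0.1–10,000 nM) in HEPES pH 7.4 with MgCl2, EDTA, BSA. Filtration onto PEI-soaked GF/C filters, scintillation counting; Ki from IC50 by Cheng–Prusoff.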

human GnRH receptors = biological target: T2, human GnRH receptors (Homo sapiens, UniProt P30968); test: as above; details: Human GnRH receptor; competition with 125I-GnRH-A; Ki calculated from IC50 (Cheng et al.)
T2 construct: expressed in transfected cells; host or cells: HEK 293
T2 sequence (P30968 1-328): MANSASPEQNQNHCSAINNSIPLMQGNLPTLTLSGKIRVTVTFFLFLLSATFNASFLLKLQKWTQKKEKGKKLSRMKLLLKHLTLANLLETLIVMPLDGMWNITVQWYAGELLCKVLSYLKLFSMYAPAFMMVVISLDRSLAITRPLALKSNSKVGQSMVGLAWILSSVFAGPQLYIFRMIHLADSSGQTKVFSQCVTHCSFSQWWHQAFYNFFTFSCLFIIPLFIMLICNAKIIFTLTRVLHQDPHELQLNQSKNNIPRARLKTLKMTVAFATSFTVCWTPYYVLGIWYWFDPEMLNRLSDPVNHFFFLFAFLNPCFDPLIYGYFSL
Summary of the method: as §2

mouse GnRH receptors = biological target: T3, mouse GnRH receptors (Mus musculus, UniProt Q01776); test: as above; details: Mouse GnRH receptor; competition with 125I-GnRH-A; Ki calculated from IC50 (Cheng et al.)
T3 construct: expressed in transfected cells; host or cells: HEK 293
T3 sequence (Q01776 1-327): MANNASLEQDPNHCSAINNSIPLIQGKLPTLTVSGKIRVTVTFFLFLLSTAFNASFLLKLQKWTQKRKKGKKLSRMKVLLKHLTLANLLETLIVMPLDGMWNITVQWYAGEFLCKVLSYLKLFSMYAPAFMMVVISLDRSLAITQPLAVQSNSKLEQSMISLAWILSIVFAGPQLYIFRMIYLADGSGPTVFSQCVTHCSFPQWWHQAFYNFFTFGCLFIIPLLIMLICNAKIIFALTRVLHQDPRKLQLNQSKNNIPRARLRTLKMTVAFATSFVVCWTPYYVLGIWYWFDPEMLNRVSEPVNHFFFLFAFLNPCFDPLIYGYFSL
Summary of the method: as §2

[3] = Pharmacokinetics in female rats; format: in vivo, rat; details: for FR Fp.o.: AUCp.o./AUCi.v.; for Tmax: rat, plasma, po, dose and vehicle per footnote, read-out: FR Tmax hr
Procedure: Rats (male or female, 200-225 g) are prepared with indwelling jugular vein cannula as described by Harms et al., Applied Physiol. 36:391-398 (1974), and allowed to recover overnight with free access to the standard vivarium chow and water. […] […] The blood samples are withdrawn at specific times, plasma is immediately separated and compound extracted with ethyl acetate. The samples are analyzed by LC-MS using 30-90% gradient of ACN in 50 mM ammonium acetate.
The pharmacokinetic parameters are calculated using WinNonlin software (Scientific Consulting Inc.). The bioavailability is calculated as AUCp.o./AUCi.v., where AUCp.o. and AUCi.v. are areas under the plasma concentration-time curve after oral and i.v. administration, respectively.

[4] = In vitro metabolism: disappearance of parent compound in liver microsomes (male rat); format: in vitro ADME; details: 5 uM compound, 0.5 mg/ml microsomal protein, 2 mM NADPH, 30 minutes at 37° C.
Procedure: as §1

[5] = 10 mg/kg as 5 mg/ml solution in 10% cremophor 90% saline
[6] = 10 mg/kg as 5 mg/ml solution in 10% DMSO 105 cremophor 80% saline

Huma % p. 30′ [1] | Fem. t % rem. 30′ [2] | pKi (rat GnRH receptor) | pKi (human GnRH receptors) | pKi (mouse GnRH receptors) | FR Fp.o. [3, 5] | FR Fp.o. [3, 6] | Male t % p. 30′ [4] | FR Fp.o. ([3]; 10 mg/kg as 5 mg/ml solution in 10% EtOH 10% cremophor 80% saline) | Tmax [3] | Compound
41% | 24% | 8.28 | 8.70 | 8.46 | 5%^3 |  |  |  |  | 5-{[-3,5,5,6,8,8-Hexamethyl-5,6,7,8-tetrahydro-2-naphthalenyl]oxy}-N′-(1,3-dimethyl-1H-pyrazolo[3,4-b]pyridin-6-yl)-2-furo hydrazide [Example F1]
52% |  | 7.92 | 7.60 | 8.00 |  |  |  |  |  | Cc1cc2c(cc1Cc1ccc(C(=O)NNc3ccc4ccccc4n3)o1)C(C)(C)CCC2(C)C [Example C5, 5-[(3,5,5,8,8-Pentamethyl-5,6,7,8-tetrahydro-2-naphthalenyl)methyl]-N′-(2-quinolinyl]-2-furohydrazide]
75% |  | 8.22 | 7.38 | 7.74 |  | <1%^2 | 95% |  |  | Cc1cc2c(cc1Cc1ccc(C(=O)NNc3nc(N)nc(C4CC4)n3)o1)C(C)(C)CCC2(C)C [Example C6, N′-(4-amino-6-cyclopropyl-1,3,5-triazin-2-yl)-5-[(3,5,5,8,8-pentamethyl-5,6,7,8-tetrahydro-2-naphthalenyl)methyl]-2-furohydrazide]
61% | 14% | 7.33 | 7.21 | 7.52 |  |  | 94% |  |  | Cc1cc2c(cc1Cc1ccc(C(=O)NNc3ccc(C(F)(F)F)cn3)o1)C(C)(C)CCC2(C)C [Example C9, 5-[(3,5,5,8,8-Pentamethyl-5,6,7,8-tetrahydro-2-naphthalenyl)methyl]-N′-[5-(trifluoromethyl)-2-pyridinyl]-2-furohydrazide]
43% | 27% | 8.05 | 8.38 | 7.92 |  |  | 96% | 57%^4 | 60 min | Cc1cc2c(cc1Cc1ccc(C(=O)NNc3cc(C)c4c(C)nn(C)c4n3)o1)C(C)(C)OC2(C)C [Example E1, 5-[(1,1,3,3,6-pentamethyl-1,3-dihydro-2-benzofuran-5-yl)methyl]-N′-(1,3,4-trimethyl-1H-pyrazolo[3,4-b]pyridin-6-yl)-2-furohydrazide]
30% |  |  | 6.52 |  |  |  |  |  |  | CC(=O)c1c(NNC(=O)c2ccc(Cc3cc4c(cc3C)C(C)(C)OC4(C)C)o2)nc2c(c(C)nn2C)c1C [Example E2, N-(5-acetyl-1,3,4-trimethyl-1H-pyrazolo[3,4-b]pyridin-6yl)-5-[(1,1,3,3,6-pentamethyl-1,3-dihydro-2-benzofuran-5-yl)methyl]-2-furohydrazide]
65% | 22% | 8.07 | 8.48 | 8.09 | 8%^3 |  | 93% |  | 30 min | Cc1cc2c(cc1Oc1ccc(C(=O)NNc3cc(C)c4c(C)nn(C)c4n3)o1)C(C)(C)CCC2(C)C [Example F2]
43% |  |  | 5.24 |  |  |  |  |  |  | Cc1cc(Cl)c(C(C)C)c(Oc2ccc(C(=O)NNc3cc(C)c4c(C)nn(C)c4n3)o2)c1 [Example I3, 5-(3-Chloro-2-isopropyl-5-methylphenoxy)-N′-(1,3,4-trimethyl-1H-pyrazolo[3,40b]pyridin-6-yl)-2-furohydrazide]
58% |  |  | 5.92 |  |  |  |  |  |  | COc1cc2c(cc1Oc1ccc(C(=O)NNc3cc(C)c4c(C)nn(C)c4n3)o1)C(C)(C)CC2=O [Example I5, 5-[(6-Methoxy-3,3-dimethyl-1-oxo-2,3-dihydro-1H-inden-5-yl)oxy]-N′-(1,3,4-trimethyl-1H-pyrazolo[3,4-b]pyridin-6-yl)-2-furohydrazide]
 |  |  | 6.35 |  |  |  | 99% and 95% |  | 60 min | COc1cc(C)c(Cl)c(C)c1Cc1ccc(C(=O)NNc2cc(C)c3c(C)nn(C)c3n2)o1 [Example J1]
 |  |  | 6.26 |  | 6%^3 |  |  |  | 30 min | Cc1cc(C)c(Cc2ccc(C(=O)NNc3cc(C)c4c(C)nn(C)c4n3)o2)c(C)c1Br [Example J2]
57% | 9% | 7.70 | 7.46 | 7.30 |  | 4%^2 | 89% |  | 30 min | Cc1ccc(C(C)(C)C)cc1Cc1ccc(C(=O)NNc2cc(C)c3c(C)nn(C)c3n2)o1 [Example J7, 5-[5-(tert-butyl)-2-methylbenzyl]-N′-(1,3,4-trimethyl-1H-pyrazolo[3,4-b]pyridin-6-yl)-2-furohydrazide]
 |  | 7.07 | 7.55 | 7.66 |  |  |  |  |  | Cc1cc2c(cc1Oc1ccc(C(=O)NNc3cc(C)c4c(C)nn(C)c4n3)o1)C(C)(C)OC2 [Example N2, 5-(3,3,6-Trimethyl-1,3-dihydro-isobenzofuran-5-yloxy)-furan-2-carboxylic acid N′-(1,3,4-trimethyl-1H-pyrazolo[3,4-b]pyridin-6-yl)-hydrazide]

Source: US6903132B2, “Non-peptide GnRH agents, pharmaceutical compositions and methods for their use” (Agouron Pharmaceuticals, Inc., priority 2002, dated 2005)
